Measured values taken from patent US12280072B2, “Oligosaccharide compound for inhibiting intrinsic coagulation factor X-enzyme complex, and preparation method therefor and uses thereof” (Jiuzhitang Co., Ltd., priority 2017, dated 2025).
Read-outs that look alike come from different tables or passages of the source.

Assays:
Type in all cases: biochemical
[1] = biological target: T1, FIIa (Homo sapiens); assay: AT-dependent IIa inhibitory activity assay
T1 construct: antithrombin (i.e., active coagulation factor IIa); purchased
T1 sequence (P01008 33-464): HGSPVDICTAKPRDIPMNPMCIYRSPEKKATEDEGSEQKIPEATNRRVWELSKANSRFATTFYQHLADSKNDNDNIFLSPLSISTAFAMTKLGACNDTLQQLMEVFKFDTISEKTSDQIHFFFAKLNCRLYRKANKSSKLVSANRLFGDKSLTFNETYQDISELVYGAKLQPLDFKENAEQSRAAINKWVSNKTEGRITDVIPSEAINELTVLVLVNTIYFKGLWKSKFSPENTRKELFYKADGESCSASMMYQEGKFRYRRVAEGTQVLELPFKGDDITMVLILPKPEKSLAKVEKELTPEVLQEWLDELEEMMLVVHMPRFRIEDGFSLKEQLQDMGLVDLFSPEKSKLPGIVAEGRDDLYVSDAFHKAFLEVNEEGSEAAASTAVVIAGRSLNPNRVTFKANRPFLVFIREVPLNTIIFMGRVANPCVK
Experimental: AT-dependent IIa inhibitory activity assay: Heparin Anti-FIIa kit was used for detection. To a 96-well plate, 30 μL of sample, control solution or Tris-HCl buffer (negative control) was added, and then 30 μL of 1 IU/mL AT solution was added, mixed well by shaking the plate and incubated at 37° C. for 2 min; 30 μL of 24 IU/mL FIIa solution was added, mixed well by shaking the plate and incubated for 2 min at 37° C., and then 30 μL of pre-warmed 1.25 mM FIIa specific chromogenic substrate CS-01 (38) was added, mixed well by shaking the plate. The OD405 was detected by a microplate reader and the IC50 value of FIIa inhibition of each sample was calculated.
(§1) Data processing: The average value of OD405 detected by the duplicated well was used as the detection value of the test sample and the reference of each concentration, and the slope of the linear fit between the detected value to the time value (the change rate of the absorbance value OD405/min) indicated enzymatic activity of coagulation factor. Taking the clotting factor activity of the negative control well as 100%, coagulation factor activity (percentage) in the presence of the test sample was calculated. The coagulation factor activity in the presence of the test sample was plotted against the concentration of the test sample, and fitted according to the following formula, to calculate the IC50 value: B=(IC50)^n/{(IC50)^n+[I]^n}
(§2) in the formula, B is the coagulation factor activity (percentage) in the presence of the test sample, [I] is the concentration of the test sample, IC50 is the half inhibitory concentration (concentration of the test sample required to inhibit 50% of the activity), and n is the Hill coefficient. • (4) Effect on surface activation and platelet activity: […]

[2] = biological target: T2, intrinsic factor Xase (Homo sapiens, UniProt P00740); assay: Xase inhibitory activity assay
T2 construct: 60 nM FIXa; purchased
T2 sequence (P00740 47-191 limits assumed): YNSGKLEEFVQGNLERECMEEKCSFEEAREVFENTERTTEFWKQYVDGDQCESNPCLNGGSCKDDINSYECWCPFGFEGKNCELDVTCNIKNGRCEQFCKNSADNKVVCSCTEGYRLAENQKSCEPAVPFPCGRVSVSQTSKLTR
T2 sequence (P00740 227-461 limits assumed): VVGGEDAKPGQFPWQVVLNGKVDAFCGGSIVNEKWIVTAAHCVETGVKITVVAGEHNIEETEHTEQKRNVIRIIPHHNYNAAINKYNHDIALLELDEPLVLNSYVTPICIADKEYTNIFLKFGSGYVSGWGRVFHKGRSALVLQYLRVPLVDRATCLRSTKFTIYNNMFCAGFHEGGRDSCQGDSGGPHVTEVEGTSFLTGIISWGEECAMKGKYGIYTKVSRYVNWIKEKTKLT
Experimental: Xase inhibitory activity assay: Detection was performed according to kit instructions and literature methods by combining the Factor VIII and […]. Specifically, to each well of a 96-well plate, 30 μL of test solution, control solution, or Tris-HCl buffer (negative control) was added, and 30 μl of FVIII (2 IU/ml), 30 μl of R2 (60 nM FIXa, containing FIIa, PC/PS, Ca^2+) were sequentially added, mixed by shaking the plate, incubated at 37° C. for 2 min; and then 30 μL of R1 (50 nM FX, containing direct thrombin inhibitor) was added, mixed by shaking the plate, incubated at 37° C. for 1 min; and then 30 μL of R3 (FXa chromogenic substrate SXa-11, about 8.4 mM) was added. The absorbance at 405 nm (OD405) was detected with a microplate reader, continuously measuring for 7.5 min at a interval of 30 s. The Xase activity and IC50 value of Xase inhibition of the test sample were calculated based on the OD405 change value.
as §1, §2

[3] = tested on: human-controlled plasma; assay: Anticoagulant activity assay: PT clotting time
Experimental: (§3) 8.2 Methods • (1) Preparation of sample solution: Oligosaccharide compounds A1˜A8, B1˜B11 and oligosaccharide mixtures C1, D1, D2 were all dissolved in Tris-HCl buffer and diluted to the desired series of solubility. • (2) Anticoagulant activity assay: 90 μL of human-controlled plasma was added to the sample or 10 μL of the control solution, and then the clotting time (APTT and PT) was detected by the MC-4000 coagulometer according to the method described in the APTT and PT kit instructions. • (3) Coagulation factor inhibitory activity analysis: […]

[4] = tested on: plasma; assay: TT (thrombin time) clotting time
[5] = biological target: T3, FXa (Homo sapiens); assay: AT-dependent Xa inhibitory activity assay
T3 construct: 8 μg/mL FXa solution; purchased
T3 sequence (P01008 33-464): as the sequence (P01008 33-464) above
Experimental: AT-dependent Xa inhibitory activity assay: Heparin […] kit was used for detection. To a 96-well plate, 30 μL of sample, control solution or Tris-HCl buffer (negative control) was added, then 30 μL of 1 IU/mL AT solution was added, mixed well and incubated at 37° C. for 1 min; and than 30 μL of 8 μg/mL FXa solution was added, mixed well and incubated at 37° C. for 1 min, then 30 μL of pre-warmed 1.25 mM Xa chromogenic substrate SXa-11 was added. OD405 was detected by a microplate reader.
as §1, §2

[6] = tested on: human-controlled plasma; assay: Anticoagulant activity assay: APTT clotting time
Experimental: as §3

[7] = in presence of AT; read-out: Drug concentration required to inhibit 50% of coagulation factor activity (IC50, ng/mL) Ha (AT)
[8] = read-out: Drug concentration required to inhibit 50% of coagulation factor activity (IC50, ng/mL) Xase (converted)
[9] = in presence of AT; read-out: Drug concentration required to inhibit 50% of coagulation factor activity (IC50, ng/mL) Xa (AT)

| Compound | IC50 [1, 7] | IC50 [2, 8] | IC50 [5, 9] | Drug concentration required for multiplication of coagulation time (μg/mL) PT [3] | Drug concentration required for multiplication of coagulation time (μg/mL) TT [4] | Drug concentration required for multiplication of coagulation time (μg/mL) APTT [6] | IC50 ([1]; read-out: Drug concentration required to inhibit 50% of coagulation factor activity (IC50, ng/mL) Ha (AT); in presence of AT) | IC50 ([2]; read-out: Drug concentration required to inhibit 50% of coagulation factor activity (IC50, ng/mL) Xase) | IC50 ([5]; read-out: Drug concentration required to inhibit 50% of coagulation factor activity (IC50, ng/mL) Xa (AT); in presence of AT) |
| --- | --- | --- | --- | --- | --- | --- | --- | --- | --- |
| CC(=O)NC1C(OC2C(C(=O)O)OC(OC3C(NC(C)=O)C(OC4C(C(=O)O)OC(OC5C(NC(C)=O)C(OC6C(C(=O)O)OC(OC7C(NC(C)=O)C(OC(C(O)C(=O)O)C(OC8OC(C)C(OS(=O)(=O)O)C(OS(=O)(=O)O)C8O)C(O)CO)OC(COS(=O)(=O)O)C7OS(=O)(=O)O)C(O)C6OC6OC(C)C(OS(=O)(=O)O)C(OS(=O)(=O)O)C6O)OC(COS(=O)(=O)O)C5OS(=O)(=O)O)C(O)C4OC4OC(C)C(OS(=O)(=O)O)C(OS(=O)(=O)O)C4O)OC(COS(=O)(=O)O)C3OS(=O)(=O)O)C(O)C2OC2OC(C)C(OS(=O)(=O)O)C(OS(=O)(=O)O)C2O)OC(COS(=O)(=O)O)C(OS(=O)(=O)O)C1OC1OC(C(=O)O)=CC(OC2OC(C)C(OS(=O)(=O)O)C(OS(=O)(=O)O)C2O)C1O [Compound B4, L-Fuc3S4S-(α1,3)-L-ΔUA-(α1,3)-{D-GalNAc4S6S-(β1,4)-[L-Fuc3S4S-(α1,3)]-D-GlcA-(β1,3)}˜-D-GalNAc4S6S-(β1,4)-[L-Fuc3S4S-(α1,3)]-D-GlcA-ol] |  |  |  | # (>128 μg/mL) | # (>128 μg/mL) | 4.5 µg/mL | > 1290 nM | 5.33 nM | > 1290 nM |
| CC(=O)NC(CO)C(OC1OC(C(=O)O)C(OC2OC(COS(=O)(=O)O)C(OS(=O)(=O)O)C(OC3OC(C(=O)O)C(OC4OC(COS(=O)(=O)O)C(OS(=O)(=O)O)C(OC5OC(C(=O)O)C(OC6OC(COS(=O)(=O)O)C(OS(=O)(=O)O)C(OC7OC(C(=O)O)=CC(OC8OC(C)C(OS(=O)(=O)O)C(O)C8OS(=O)(=O)O)C7O)C6NC(C)=O)C(OC6OC(C)C(OS(=O)(=O)O)C(O)C6OS(=O)(=O)O)C5O)C4NC(C)=O)C(OC4OC(C)C(OS(=O)(=O)O)C(O)C4OS(=O)(=O)O)C3O)C2NC(C)=O)C(OC2OC(C)C(OS(=O)(=O)O)C(O)C2OS(=O)(=O)O)C1O)C(OS(=O)(=O)O)C(O)COS(=O)(=O)O [Compound A3, L-Fuc2S4S-(α1,3)-ΔUA-(α1,3)-{D-GaNAc4S6S-(β1,4)-[L-Fuc2S4S-(α1,3)]-D-GlcA-(β1,3)}n+1-D-GalNAc4S6S-ol] | > 1480 nM | 11.8 nM | > 1480 nM | # (>128 μg/mL) | # (>128 μg/mL) | 6.8 µg/mL |  |  |  |
| CC(=O)NC(CO)C(OC1OC(C(=O)O)C(OC2OC(COS(=O)(=O)O)C(OS(=O)(=O)O)C(OC3OC(C(=O)O)C(OC4OC(COS(=O)(=O)O)C(OS(=O)(=O)O)C(OC5OC(C(=O)O)C(OC6OC(COS(=O)(=O)O)C(OS(=O)(=O)O)C(OC7OC(C(=O)O)C(OC8OC(COS(=O)(=O)O)C(OS(=O)(=O)O)C(OC9OC(C(=O)O)=CC(OC%10OC(C)C(OS(=O)(=O)O)C(O)C%10OS(=O)(=O)O)C9O)C8NC(C)=O)C(OC8OC(C)C(OS(=O)(=O)O)C(O)C8OS(=O)(=O)O)C7O)C6NC(C)=O)C(OC6OC(C)C(OS(=O)(=O)O)C(O)C6OS(=O)(=O)O)C5O)C4NC(C)=O)C(OC4OC(C)C(OS(=O)(=O)O)C(O)C4OS(=O)(=O)O)C3O)C2NC(C)=O)C(OC2OC(C)C(OS(=O)(=O)O)C(O)C2OS(=O)(=O)O)C1O)C(OS(=O)(=O)O)C(O)COS(=O)(=O)O [Compound A4, L-Fuc2S4S-(α1,3)-ΔUA-(α1,3)-{D-GaNAc4S6S-(β1,4)-[L-Fuc2S4S-(α1,3)]-D-GlcA-(β1,3)}n+1-D-GalNAc4S6S-ol] | > 1180 nM | 6.67 nM | > 1180 nM | # (>128 μg/mL) | # (>128 μg/mL) | 5.3 µg/mL |  |  |  |
| COC(=O)C1=CC(OC2OC(C)C(OS(=O)(=O)O)C(O)C2OS(=O)(=O)O)C(O)C(OC2C(NC(C)=O)C(OC3C(C(=O)OC)OC(OC4C(NC(C)=O)C(OC5C(C(=O)OC)OC(OC(C(CO)NC(C)=O)C(OS(=O)(=O)O)C(O)COS(=O)(=O)O)C(O)C5OC5OC(C)C(OS(=O)(=O)O)C(O)C5OS(=O)(=O)O)OC(COS(=O)(=O)O)C4OS(=O)(=O)O)C(O)C3OC3OC(C)C(OS(=O)(=O)O)C(O)C3OS(=O)(=O)O)OC(COS(=O)(=O)O)C2OS(=O)(=O)O)O1 [Compound A6, L-Fuc2S4S-(α1,3)-[6-Methyl-ΔUA-(α1,3)]-{D-GaNAc4S6S-(β1,4)-[L-Fuc2S4S-(α1,3)-]-D-6-Methyl-GlcA-(β1,4)}2-D-GalNAc4S6S-ol] | > 1940 nM | 26.5 nM | > 1940 nM | # (>128 μg/mL) | # (>128 μg/mL) | 7.5 µg/mL |  |  |  |

Now from value to molecule, other results behind:

| IC50 [1, 7] | IC50 [2, 8] | IC50 [5, 9] | Compound | Drug concentration required for multiplication of coagulation time (μg/mL) PT [3] | Drug concentration required for multiplication of coagulation time (μg/mL) TT [4] | Drug concentration required for multiplication of coagulation time (μg/mL) APTT [6] | IC50 ([1]; read-out: Drug concentration required to inhibit 50% of coagulation factor activity (IC50, ng/mL) Ha (AT); in presence of AT) | IC50 ([2]; read-out: Drug concentration required to inhibit 50% of coagulation factor activity (IC50, ng/mL) Xase) | IC50 ([5]; read-out: Drug concentration required to inhibit 50% of coagulation factor activity (IC50, ng/mL) Xa (AT); in presence of AT) |
| --- | --- | --- | --- | --- | --- | --- | --- | --- | --- |
| > 2170 nM | 26.7 nM | > 2170 nM | COC(=O)C1=CC(OC2OC(C)C(OS(=O)(=O)O)C(O)C2OS(=O)(=O)O)C(O)C(OC2C(NC(C)=O)C(OC3C(C(=O)OC)OC(OC4C(NC(C)=O)C(OC5C(C(=O)OC)OC(OCc6ccccc6)C(O)C5OC5OC(C)C(OS(=O)(=O)O)C(O)C5OS(=O)(=O)O)OC(COS(=O)(=O)O)C4OS(=O)(=O)O)C(O)C3OC3OC(C)C(OS(=O)(=O)O)C(O)C3OS(=O)(=O)O)OC(COS(=O)(=O)O)C2OS(=O)(=O)O)O1 [Compound B10, L-Fuc2S4S-(α1,3)-L-6-Methyl-ΔUA-(α1,3)-D-GaNAc4S6S-(β1,4)-[L-Fuc2S4S-(α1,3)]-D-6-Methyl-ΔUA-GlcA-(β1,3)-D-GalNAc4S6S-(β1,4)-[L-Fuc2S4S-(α1,3)]-D-O-1-Benzyl-6-Methyl-GlcA] | # (>128 μg/mL) | # (>128 μg/mL) | 7.9 µg/mL |  |  |  |
| > 2210 nM | 26.3 nM | > 2210 nM | CC(=O)NC1C(OC2C(C(=O)O)OC(OC3C(NC(C)=O)C(OC4C(C(=O)O)OC(OCc5ccccc5)C(O)C4OC4OC(C)C(OS(=O)(=O)O)C(O)C4OS(=O)(=O)O)OC(COS(=O)(=O)O)C3OS(=O)(=O)O)C(O)C2OC2OC(C)C(OS(=O)(=O)O)C(O)C2OS(=O)(=O)O)OC(COS(=O)(=O)O)C(OS(=O)(=O)O)C1OC1OC(C(=O)O)=CC(OC2OC(C)C(OS(=O)(=O)O)C(O)C2OS(=O)(=O)O)C1O [Compound B9, L-Fuc2S4S-(α1,3)-L-ΔUA-(α1,3)-D-GaNAc4S6S-(D1,4)-[L-Fuc2S4S-(α1,3)]-D-GlcA-(β1,3)-D-GalNAc4S6S-(β1,4)-[L-Fuc2S4S-(α1,3)]-D-1-Benzyl-GlcA-ol] | # (>128 μg/mL) | # (>128 μg/mL) | 7.6 µg/mL |  |  |  |
